Measurements published in the supplement of paper PMC11208160.

Experiment: recombinant barcode read abundance after kanamycin selection (control-corrected) (log10(CPM+1)); higher = more efficient recombination; sequences stand for … in AGTGCAGAGAAAATCGGCCAGTTTTCTCTGCCTGCAGTCCGCATGCCGT…ATTTATGCAGCGGACTGCCTTTCTCCCAAAGTGATAAACCGGACAGTATCATGGACCGGTTTTCCCGGTAATCCGTATTTGCAAGGTTGGTTTCACT; site = the 11-nt target
Method in brief: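 Reported as log10(CPM+1), each value stands for recombination efficiency. That efficiency is the averaged, control-corrected counts per million of barcodes found at recombinant junctions. Cells from a pooled E. coli library pairing targets with IS621 bridge RNA target-binding loops were plated twice on chloramphenicol/ampicillin LB agar (control) and twice on chloramphenicol/ampicillin/kanamycin with 0.1 mM IPTG.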

Row | Sequence | recombinant barcode read abundance (log10)
1 | GGCTCCCCTTGGGTTCTAACCTGTTGCGGTA [GGCTCCCCTCC_LTGcore_CT_RTGcore_TA] (site GGCTCCCCTCC) (LTG core: CT, RTG core: TA) | 0.101
2 | GGCTCCCCTTGGGTTCTAACCTGTTGCGGTC [GGCTCCCCTCC_LTGcore_CT_RTGcore_GA] (site GGCTCCCCTCC) (LTG core: CT, RTG core: GA) | 0.0253
3 | GGCTCCCCTTGGGTTCTAACCTGTTGCGGTG [GGCTCCCCTCC_LTGcore_CT_RTGcore_CA] (site GGCTCCCCTCC) (LTG core: CT, RTG core: CA) | 0.251
4 | GGCTCCCGGTGGGTTCTAACCTGTTGCGGCC [GGCTCCCCTCC_LTGcore_GG_RTGcore_GG] (site GGCTCCCCTCC) (LTG core: GG, RTG core: GG) | 0.203
5 | GGCTCCCGTTGGGTTCTAACCTGTTGCGGAC [GGCTCCCCTCC_LTGcore_GT_RTGcore_GT] (site GGCTCCCCTCC) (LTG core: GT, RTG core: GT) | 0.259
6 | GGCTCCCTTTGGGTTCTAACCTGTTGCGGAA [GGCTCCCCTCC_LTGcore_TT_RTGcore_TT] (site GGCTCCCCTCC) (LTG core: TT, RTG core: TT) | 0.0992
7 | GGCTCCCTTTGGGTTCTAACCTGTTGCGGAG [GGCTCCCCTCC_LTGcore_TT_RTGcore_CT] (site GGCTCCCCTCC) (LTG core: TT, RTG core: CT) | 0.0927
8 | GGGAGCCAATGGGTTCTAACCTGTTGCTGAG [GGGAGCCCTCA_LTGcore_AA_RTGcore_CT] (site GGGAGCCCTCA) (LTG core: AA, RTG core: CT) | 0.235
9 | GGGAGCCATTGGGTTCTAACCTGTTGCTGAT [GGGAGCCCTCA_LTGcore_AT_RTGcore_AT] (site GGGAGCCCTCA) (LTG core: AT, RTG core: AT) | 0.574
10 | GGGAGCCCTTGGGTTCTAACCTGTTGCTGCA [GGGAGCCCTCA_LTGcore_CT_RTGcore_TG] (site GGGAGCCCTCA) (LTG core: CT, RTG core: TG) | 0.122
11 | GGGAGCCCTTGGGTTCTAACCTGTTGCTGCG [GGGAGCCCTCA_LTGcore_CT_RTGcore_CG] (site GGGAGCCCTCA) (LTG core: CT, RTG core: CG) | 0.147
12 | GGGAGCCCTTGGGTTCTAACCTGTTGCTGTG [GGGAGCCCTCA_LTGcore_CT_RTGcore_CA] (site GGGAGCCCTCA) (LTG core: CT, RTG core: CA) | 0.589
13 | GGGAGCCTTTGGGTTCTAACCTGTTGCTGAG [GGGAGCCCTCA_LTGcore_TT_RTGcore_CT] (site GGGAGCCCTCA) (LTG core: TT, RTG core: CT) | 0.364
14 | GGGCGGAAATGGGTTCTAACCTGTTGCGGAG [GGGCGGACTCC_LTGcore_AA_RTGcore_CT] (site GGGCGGACTCC) (LTG core: AA, RTG core: CT) | 0.131
15 | GGGCGGACATGGGTTCTAACCTGTTGCGGAG [GGGCGGACTCC_LTGcore_CA_RTGcore_CT] (site GGGCGGACTCC) (LTG core: CA, RTG core: CT) | 2.27
16 | GGGCGGACGTGGGTTCTAACCTGTTGCGGAG [GGGCGGACTCC_LTGcore_CG_RTGcore_CT] (site GGGCGGACTCC) (LTG core: CG, RTG core: CT) | 1.66
17 | GGGCGGACTTGGGTTCTAACCTGTTGCGGGC [GGGCGGACTCC_LTGcore_CT_RTGcore_GC] (site GGGCGGACTCC) (LTG core: CT, RTG core: GC) | 0.131
18 | GGGCGGACTTGGGTTCTAACCTGTTGCGGGT [GGGCGGACTCC_LTGcore_CT_RTGcore_AC] (site GGGCGGACTCC) (LTG core: CT, RTG core: AC) | 0.273
19 | GGGCGGAGTTGGGTTCTAACCTGTTGCGGAG [GGGCGGACTCC_LTGcore_GT_RTGcore_CT] (site GGGCGGACTCC) (LTG core: GT, RTG core: CT) | 0.389
20 | GGGCGGATCTGGGTTCTAACCTGTTGCGGGA [GGGCGGACTCC_LTGcore_TC_RTGcore_TC] (site GGGCGGACTCC) (LTG core: TC, RTG core: TC) | 0.265
21 | GGGCGTGAGTGGGTTCTAACCTGTTGCCTAG [GGGCGTGCTAG_LTGcore_AG_RTGcore_CT] (site GGGCGTGCTAG) (LTG core: AG, RTG core: CT) | 0.154
22 | GGGCGTGATTGGGTTCTAACCTGTTGCCTAT [GGGCGTGCTAG_LTGcore_AT_RTGcore_AT] (site GGGCGTGCTAG) (LTG core: AT, RTG core: AT) | 0.0806
23 | GGGCGTGCTTGGGTTCTAACCTGTTGCCTCA [GGGCGTGCTAG_LTGcore_CT_RTGcore_TG] (site GGGCGTGCTAG) (LTG core: CT, RTG core: TG) | 1.06

Row | Sequence | recombinant barcode read abundance (log10)
24 | GGGCGTGCTTGGGTTCTAACCTGTTGCCTGG [GGGCGTGCTAG_LTGcore_CT_RTGcore_CC] (site GGGCGTGCTAG) (LTG core: CT, RTG core: CC) | 0.301
25 | GGGCGTGCTTGGGTTCTAACCTGTTGCCTTG [GGGCGTGCTAG_LTGcore_CT_RTGcore_CA] (site GGGCGTGCTAG) (LTG core: CT, RTG core: CA) | 0.0774
26 | GGGCGTGGATGGGTTCTAACCTGTTGCCTTC [GGGCGTGCTAG_LTGcore_GA_RTGcore_GA] (site GGGCGTGCTAG) (LTG core: GA, RTG core: GA) | 0.0142
27 | GGGCGTGGCTGGGTTCTAACCTGTTGCCTGC [GGGCGTGCTAG_LTGcore_GC_RTGcore_GC] (site GGGCGTGCTAG) (LTG core: GC, RTG core: GC) | 0
28 | GGGCGTGGGTGGGTTCTAACCTGTTGCCTAG [GGGCGTGCTAG_LTGcore_GG_RTGcore_CT] (site GGGCGTGCTAG) (LTG core: GG, RTG core: CT) | 0.188
29 | GGGCGTGGTTGGGTTCTAACCTGTTGCCTAG [GGGCGTGCTAG_LTGcore_GT_RTGcore_CT] (site GGGCGTGCTAG) (LTG core: GT, RTG core: CT) | 0.0791
30 | GGGCGTGTCTGGGTTCTAACCTGTTGCCTAG [GGGCGTGCTAG_LTGcore_TC_RTGcore_CT] (site GGGCGTGCTAG) (LTG core: TC, RTG core: CT) | 0.241
31 | GGGCGTGTTTGGGTTCTAACCTGTTGCCTAA [GGGCGTGCTAG_LTGcore_TT_RTGcore_TT] (site GGGCGTGCTAG) (LTG core: TT, RTG core: TT) | 0.0616
32 | GGTGCCCAATGGGTTCTAACCTGTTGCCGTT [GGTGCCCCTCG_LTGcore_AA_RTGcore_AA] (site GGTGCCCCTCG) (LTG core: AA, RTG core: AA) | 0.404
33 | GGTGCCCATTGGGTTCTAACCTGTTGCCGAT [GGTGCCCCTCG_LTGcore_AT_RTGcore_AT] (site GGTGCCCCTCG) (LTG core: AT, RTG core: AT) | 0.0482
34 | GGTGCCCCCTGGGTTCTAACCTGTTGCCGAG [GGTGCCCCTCG_LTGcore_CC_RTGcore_CT] (site GGTGCCCCTCG) (LTG core: CC, RTG core: CT) | 0.15
35 | GGTGCCCCCTGGGTTCTAACCTGTTGCCGGG [GGTGCCCCTCG_LTGcore_CC_RTGcore_CC] (site GGTGCCCCTCG) (LTG core: CC, RTG core: CC) | 0.387
36 | GGTGCCCCGTGGGTTCTAACCTGTTGCCGAG [GGTGCCCCTCG_LTGcore_CG_RTGcore_CT] (site GGTGCCCCTCG) (LTG core: CG, RTG core: CT) | 0.0559
37 | GGTGCCCCGTGGGTTCTAACCTGTTGCCGCG [GGTGCCCCTCG_LTGcore_CG_RTGcore_CG] (site GGTGCCCCTCG) (LTG core: CG, RTG core: CG) | 0.329
38 | GGTGCCCCTTGGGTTCTAACCTGTTGCCGGA [GGTGCCCCTCG_LTGcore_CT_RTGcore_TC] (site GGTGCCCCTCG) (LTG core: CT, RTG core: TC) | 0.0539
39 | GGTGCCCCTTGGGTTCTAACCTGTTGCCGGG [GGTGCCCCTCG_LTGcore_CT_RTGcore_CC] (site GGTGCCCCTCG) (LTG core: CT, RTG core: CC) | 0.295
40 | GGTGCCCCTTGGGTTCTAACCTGTTGCCGTG [GGTGCCCCTCG_LTGcore_CT_RTGcore_CA] (site GGTGCCCCTCG) (LTG core: CT, RTG core: CA) | 0.126
41 | GGTGCCCGCTGGGTTCTAACCTGTTGCCGGC [GGTGCCCCTCG_LTGcore_GC_RTGcore_GC] (site GGTGCCCCTCG) (LTG core: GC, RTG core: GC) | 0.148
42 | GGTGCCCTATGGGTTCTAACCTGTTGCCGTA [GGTGCCCCTCG_LTGcore_TA_RTGcore_TA] (site GGTGCCCCTCG) (LTG core: TA, RTG core: TA) | 0.298
43 | GGTGCCCTGTGGGTTCTAACCTGTTGCCGAG [GGTGCCCCTCG_LTGcore_TG_RTGcore_CT] (site GGTGCCCCTCG) (LTG core: TG, RTG core: CT) | 0.108
44 | GTCGCCCAATGGGTTCTAACCTGTTGCTATT [GTCGCCCCTTA_LTGcore_AA_RTGcore_AA] (site GTCGCCCCTTA) (LTG core: AA, RTG core: AA) | 0.305
45 | GTCGCCCCGTGGGTTCTAACCTGTTGCTACG [GTCGCCCCTTA_LTGcore_CG_RTGcore_CG] (site GTCGCCCCTTA) (LTG core: CG, RTG core: CG) | 0.316
